Laboratory results taken from US20230002359A1, “PESTICIDALLY ACTIVE FUSED BICYCLIC HETEROAROMATIC COMPOUNDS” (priority 2019, published 2023).

Key:
Assay type in all cases: in vivo
[1] = system: Diabrotica Balteata (Corn Root Worm); assay: Example B1: Diabrotica balteata (corn root worm), maize sprouts sprayed, L2 larvae; settings: 96 h, application rate of 200 ppm, 4 days after infestation, L2 larvae, read-out: control in at least one of the two categories (mortality or growth inhibition)
Method: Maize sprouts placed onto an agar layer in 24-well microtiter plates were treated with aqueous test solutions prepared from 10′000 ppm DMSO stock solutions by spraying. After drying, the plates were infested with L2 larvae (6 to 10 per well). The samples were assessed for mortality and growth inhibition in comparison to untreated samples 4 days after infestation.

[2] = system: Spodoptera littoralis (Egyptian Cotton Leaf Worm); assay: Example B7: Spodoptera littoralis (Egyptian cotton leaf worm), cotton leaf discs sprayed, L1 larvae; settings: foliar, 72 h, application rate of 200 ppm, 3 days after infestation, L1 larvae, read-out: control in at least one of the three categories (mortality, anti-feedant effect, or growth inhibition)
Method: Cotton leaf discs were placed onto agar in 24-well microtiter plates and sprayed with aqueous test solutions prepared from 10′000 ppm DMSO stock solutions. After drying the leaf discs were infested with five L1 larvae. The samples were assessed for mortality, anti-feeding effect, and growth inhibition in comparison to untreated samples 3 days after infestation. Control of Spodoptera littoralis by a test sample is given when at least one of the categories mortality, anti-feedant effect, and growth inhibition is higher than the untreated sample.

[3] = system: Chilo suppressalis (Striped Rice Stemborer); assay: Example B3: Chilo suppressalis (striped rice stemborer), artificial diet, L2 larvae; settings: 144 h, application rate of 200 ppm, 6 days after infestation, L2 larvae, read-out: control in at least one of the three categories (mortality, anti-feedant effect, or growth inhibition)
Method: 24-well microtiter plates with artificial diet were treated with aqueous test solutions prepared from 10′000 ppm DMSO stock solutions by pipetting. After drying, the plates were infested with L2 larvae (6-8 per well). The samples were assessed for mortality, anti-feeding effect, and growth inhibition in comparison to untreated samples 6 days after infestation. Control of Chilo suppressalis by a test sample is given when at least one of the categories mortality, anti-feedant effect, and growth inhibition is higher than the untreated sample.

[4] = system: Plutella xylostella (Diamond Back Moth); assay: Example B4: Plutella xylostella (diamond back moth), artificial diet, eggs, 24-well; settings: 192 h, application rate of 200 ppm, 8 days after infestation, eggs, read-out: control in at least one of the two categories (mortality or growth inhibition)
Method: 24-well microtiter plates with artificial diet were treated with aqueous test solutions prepared from 10′000 ppm DMSO stock solutions by pipetting. After drying, Plutella eggs were pipetted through a plastic stencil onto a gel blotting paper and the plate was closed with it. The samples were assessed for mortality and growth inhibition in comparison to untreated samples 8 days after infestation.

CC(c1nccnc1-c1ncccn1)N(CC1CC1)c1ncnc2c(C(F)(F)F)cc(Cl)cc12 (stereo not drawn) [P.131, 6-chloro-N-(cyclopropylmethyl)-N-[1-(3-pyrimidin-2-ylpyrazin-2-yl)ethyl]-8-(trifluoromethyl)quinazolin-4-amine]
≥ 80%: percent control (mortality or growth inhibition) at 200 ppm [1] | percent control (mortality, anti-feedant effect or growth inhibition) at 200 ppm [2] | percent control (mortality, anti-feedant effect or growth inhibition) at 200 ppm [3] | percent control (mortality or growth inhibition) at 200 ppm [4]

CC(Nc1ncnc2c(Cl)cc(C(F)(F)F)cc12)c1ncnn1-c1ccc(F)cn1 (stereo not drawn) [P.274, 8-chloro-N-[1-[2-(5-fluroo-2-pyridyl)-1,2,4-triazol-3-yl]ethyl]-6-(trifluoromethyl)quinazolin-4-amine]
≥ 80%: percent control (mortality or growth inhibition) at 200 ppm [1] | percent control (mortality, anti-feedant effect or growth inhibition) at 200 ppm [2] | percent control (mortality, anti-feedant effect or growth inhibition) at 200 ppm [3] | percent control (mortality or growth inhibition) at 200 ppm [4]

CC(Nc1ncnc2c(Br)cc(Br)cc12)c1nccnc1-n1nccn1 (stereo not drawn) [P.37, 6,8-dibromo-N-[1-[3-(triazol-2-yl)pyrazin-2-yl]ethyl]quinazolin-4-amine]
≥ 80%: percent control (mortality or growth inhibition) at 200 ppm [1] | percent control (mortality, anti-feedant effect or growth inhibition) at 200 ppm [2] | percent control (mortality, anti-feedant effect or growth inhibition) at 200 ppm [3] | percent control (mortality or growth inhibition) at 200 ppm [4]

CC(Nc1ncnc2c(Cl)cc(C(F)(F)F)cc12)c1nccnc1-n1nccn1 (stereo not drawn) [P.35, 8-chloro-N-[1-[3-(triazol-2-yl)pyrazin-2-yl]ethyl]-6-(trifluoromethyl)quinazolin-4-amine]
≥ 80%: percent control (mortality or growth inhibition) at 200 ppm [1] | percent control (mortality, anti-feedant effect or growth inhibition) at 200 ppm [2] | percent control (mortality, anti-feedant effect or growth inhibition) at 200 ppm [3] | percent control (mortality or growth inhibition) at 200 ppm [4]

CC(Nc1ncnc2c(C(F)(F)F)cc(Cl)cc12)c1ncnn1-c1ccc(OC(F)F)cn1 (stereo not drawn) [P.235, 6-chloro-N-[1-[2-[5-(difluoromethoxy)-2-pyridyl]-1,2,4-triazol-3-yl]ethyl]-8-(trifluoromethyl)quinazolin-4-amine]
≥ 80%: percent control (mortality or growth inhibition) at 200 ppm [1] | percent control (mortality, anti-feedant effect or growth inhibition) at 200 ppm [2] | percent control (mortality, anti-feedant effect or growth inhibition) at 200 ppm [3] | percent control (mortality or growth inhibition) at 200 ppm [4]

C[C@H](Nc1ncnc2c(I)cc(C(F)(F)F)cc12)c1nccnc1-c1ccc(C#N)cn1 [P.161, 6-[3-[(1S)-1-[[8-iodo-6-(trifluoromethyl)quinazolin-4-yl]amino]ethyl]pyrazin-2-yl]pyridine-3-carbonitrile]
≥ 80%: percent control (mortality or growth inhibition) at 200 ppm [1] | percent control (mortality, anti-feedant effect or growth inhibition) at 200 ppm [2] | percent control (mortality, anti-feedant effect or growth inhibition) at 200 ppm [3] | percent control (mortality or growth inhibition) at 200 ppm [4]

CC(Nc1ncnc2c(Br)cc(C(F)(F)F)cc12)c1nccnc1-c1ncccn1 (stereo not drawn) [P.96, 8-bromo-N-[1-(3-pyrimidin-2-ylpyrazin-2-yl)ethyl]-6-(trifluoromethyl)quinazolin-4-amine]
≥ 80%: percent control (mortality or growth inhibition) at 200 ppm [1] | percent control (mortality, anti-feedant effect or growth inhibition) at 200 ppm [2] | percent control (mortality, anti-feedant effect or growth inhibition) at 200 ppm [3] | percent control (mortality or growth inhibition) at 200 ppm [4]

CC(Nc1ncnc2c(C(F)(F)F)cc(Cl)cc12)c1nccnc1-n1nccn1 (stereo not drawn) [P.39, 6-chloro-N-[1-[3-(triazol-2-yl)pyrazin-2-yl]ethyl]-8-(trifluoromethyl)quinazolin-4-amine]
≥ 80%: percent control (mortality or growth inhibition) at 200 ppm [1] | percent control (mortality, anti-feedant effect or growth inhibition) at 200 ppm [2] | percent control (mortality, anti-feedant effect or growth inhibition) at 200 ppm [3] | percent control (mortality or growth inhibition) at 200 ppm [4]

CC(c1nc(Br)nn1-c1ncccn1)N(C)c1ncnc2c(Cl)cc(C(F)(F)F)cc12 (stereo not drawn) [P.207, N-[1-(5-bromo-2-pyrimidin-2-yl-1,2,4-triazol-3-yl)ethyl]-8-chloro-N-methyl-6-(trifluoromethyl)quinazolin-4-amine]
≥ 80%: percent control (mortality or growth inhibition) at 200 ppm [1] | percent control (mortality, anti-feedant effect or growth inhibition) at 200 ppm [2] | percent control (mortality, anti-feedant effect or growth inhibition) at 200 ppm [3] | percent control (mortality or growth inhibition) at 200 ppm [4]

CC(c1ncnn1-c1ccc(F)cn1)N(C)c1ncnc2c(C(F)(F)F)cc(C(F)(F)F)cc12 (stereo not drawn) [P.189, N-[1-[2-(5-fluoro-2-pyridyl)-1,2,4-triazol-3-yl]ethyl]-N-methyl-6,8-bis(trifluoromethyl)quina-zolin-4-amine]
≥ 80%: percent control (mortality or growth inhibition) at 200 ppm [1] | percent control (mortality, anti-feedant effect or growth inhibition) at 200 ppm [2] | percent control (mortality, anti-feedant effect or growth inhibition) at 200 ppm [3] | percent control (mortality or growth inhibition) at 200 ppm [4]

CC(c1nccnc1-n1nccn1)N(C)c1ncnc2c(Br)cc(C(F)(F)F)cc12 (stereo not drawn) [P.104, 8-bromo-N-methyl-N-[1-[3-(triazol-2-yl)pyrazin-2-yl]ethyl]-6-(trifluoromethyl)quinazolin-4-amine]
≥ 80%: percent control (mortality or growth inhibition) at 200 ppm [1] | percent control (mortality, anti-feedant effect or growth inhibition) at 200 ppm [2] | percent control (mortality, anti-feedant effect or growth inhibition) at 200 ppm [3] | percent control (mortality or growth inhibition) at 200 ppm [4]

CC(c1nccnc1-c1ccc(OC(F)F)cn1)N(C)c1ncnc2c(Cl)cc(C(F)(F)F)cc12 (stereo not drawn) [P.112, 8-chloro-N-[1-[3-[5-(difluroomethoxy)-2-pyridyl]pyrazin-2-yl]ethyl]-N-methyl-6-(trifluoromethyl)quinazolin-4-amine]
≥ 80%: percent control (mortality or growth inhibition) at 200 ppm [1] | percent control (mortality, anti-feedant effect or growth inhibition) at 200 ppm [2] | percent control (mortality, anti-feedant effect or growth inhibition) at 200 ppm [3] | percent control (mortality or growth inhibition) at 200 ppm [4]

C[C@H](Nc1ccnc2c(C(F)(F)F)cc(Br)cc12)c1ncnn1-c1ncccn1 [P.253, 6-bromo-N-[(1S)-1-(2-pyrimidin-2-yl-1,2,4-triazol-3-yl)ethyl]-8-(trifluoromethyl)quinolin-4-amine]
≥ 80%: percent control (mortality or growth inhibition) at 200 ppm [1] | percent control (mortality, anti-feedant effect or growth inhibition) at 200 ppm [2] | percent control (mortality, anti-feedant effect or growth inhibition) at 200 ppm [3] | percent control (mortality or growth inhibition) at 200 ppm [4]

CC(c1ncnn1-c1ccc(C#N)cn1)N(C)c1nccc2c(C(F)(F)F)cc(C(F)(F)F)cc12 (stereo not drawn) [P.211, 6-[5-[1-[[5,7-bis(trifluoromethyl)-1-isoquinolyl]-methyl-amino]ethyl]-1,2,4-triazol-1-yl]pyridine-3 carbonitrile]
≥ 80%: percent control (mortality or growth inhibition) at 200 ppm [1] | percent control (mortality, anti-feedant effect or growth inhibition) at 200 ppm [2] | percent control (mortality, anti-feedant effect or growth inhibition) at 200 ppm [3] | percent control (mortality or growth inhibition) at 200 ppm [4]

CC(Nc1ncnc2c(C(F)(F)F)cc(Cl)cc12)c1nccnc1-c1ccc(C#N)cn1 (stereo not drawn) [P.118, 6-[3-[1-[[6-chloro-8-(trifluoromethyl)quinazolin-4-yl]amino]ethyl]pyrazin-2-yl]pyridine-3-carbonitrile]
≥ 80%: percent control (mortality or growth inhibition) at 200 ppm [1] | percent control (mortality, anti-feedant effect or growth inhibition) at 200 ppm [2] | percent control (mortality, anti-feedant effect or growth inhibition) at 200 ppm [3] | percent control (mortality or growth inhibition) at 200 ppm [4]

CC(c1nccnc1-c1ccc(C#N)cn1)N(C)c1ncnc2c(C(F)(F)F)cc(C(F)(F)F)cc12 (stereo not drawn) [P.116, 6-[3-[1-[[6,8-bis(trifluoromethyl)quina-zolin-4-yl]-methyl-amino]ethyl]pyrazin-2-yl]pyridine-3-carbonitrile]
≥ 80%: percent control (mortality or growth inhibition) at 200 ppm [1] | percent control (mortality, anti-feedant effect or growth inhibition) at 200 ppm [2] | percent control (mortality, anti-feedant effect or growth inhibition) at 200 ppm [3] | percent control (mortality or growth inhibition) at 200 ppm [4]

CC(c1nccnc1-n1nccn1)N(C)c1ncnc2c(Cl)cc(C(F)(F)F)cc12 (stereo not drawn) [P.102, 8-chloro-N-methyl-N-[1-[3-(triazol-2-yl)pyrazin-2-yl]ethyl]-6-(trifluoromethyl)quinazolin-4-amine]
≥ 80%: percent control (mortality or growth inhibition) at 200 ppm [1] | percent control (mortality, anti-feedant effect or growth inhibition) at 200 ppm [2] | percent control (mortality, anti-feedant effect or growth inhibition) at 200 ppm [3] | percent control (mortality or growth inhibition) at 200 ppm [4]

C[C@H](Nc1ncnc2c(Cl)cc(C(F)(F)F)cc12)c1ncnn1-c1ccc(C#N)cn1 [P.17, 6-[5-[(1S)-1-[[8-chloro-6-(trifluoromethyl)quinazolin-4-yl]amino]ethyl]-1,2,4-triazol-1-yl]pyridine-3-carbonitrile]
≥ 80%: percent control (mortality or growth inhibition) at 200 ppm [1] | percent control (mortality, anti-feedant effect or growth inhibition) at 200 ppm [2] | percent control (mortality, anti-feedant effect or growth inhibition) at 200 ppm [3] | percent control (mortality or growth inhibition) at 200 ppm [4]
